Common to all, as to format: cell-based
The target of assay [1] is Dopamine transporter (DAT) (Homo sapiens (Human), UniProt Q01959). Description: Dopamine transporter (DAT) uptake inhibition, [3H]-dopamine uptake in HEK cells. To be noted: HEK cells expressing recombinant DAT; [3H]-dopamine 20 nM. The protocol:
(§1) Dopamine transporter (DAT) Uptake Inhibition: Compound activity was assessed using a convenient in vitro assay. Briefly, HEK cells expressing recombinant DAT were plated at 50,000 cells/well on a 96 well plate pre-coated with Matrigel one day prior to the experiment. Culture medium (DMEM/FBS) was removed and 30 μl of assay buffer (Tris-HCl 50 mM, EDTA 4 mM, BDA 0.1%) with the desired concentration of test compound was added. The plate was incubated at 37° C. for 15 minutes. Assay buffer (30 μl) containing the same concentration of compound diluted in [3H]-Dihydroxyphenylethylamine (dopamine) uptake buffer (final concentration 20 nM) was added to each well and the plate was incubated at 37° C. for 5 minutes. The reaction mixture was removed, and the cells were washed with 100 μl ice-cold assay buffer twice. Lysis buffer (50 μl) was added to the cells followed by a 5 minute incubation with gentle shaking at room temperature. The lysate was transferred to a 96 well isoplate. Optiphase supermix (100 μl) was added to each well with complete mixing. Radioactivity was counted with Microbeta Counter and reported as CPM. Nomifensine was used as a control to measure non-specific uptake and for data normalization. Percent inhibition of [3H]-Dopamine uptake calculations: 100×(1−(CPMtest sample−CPMnon-specific uptake)/(CPMMAX−CPMMIN)).

The target of assay [2] is Serotonin transporter (SERT) (Homo sapiens (Human), UniProt P31645). Description: Serotonin transporter (SERT) uptake inhibition, [3H]-Serotonin uptake in HEK cells. Conditions: HEK cells expressing recombinant SERT, [3H]-Serotonin 10 nM; for inhibition at 10 µM / inhibition at 100 µM: HEK293; for inhibition at 10 µM: 10 μM test compound; for inhibition at 100 µM: 100 μM test compound. The protocol:
Serotonin transporter (SERT) Uptake Inhibition: Compound activity was assessed using an in vitro assay. Briefly, HEK cells expressing recombinant SERT were plated at 50,000 cells/well on a 96 well plate pre-coated with Matrigel one day prior to the experiment. Culture medium (DMEM/FBS) was removed from each well, and 30 μl of assay buffer (Tris-HCl 50 mM, EDTA 4 mM, BDA 0.1%) with the desired concentration of test compound was added. The plate was incubated at 37° C. for 15 minutes. Assay buffer (30 μl) containing the same concentration of compound diluted in [3H]-Serotonin uptake buffer (final concentration 10 nM) was added to each well and the plate was incubated at 37° C. for 5 minutes. The reaction mixture was removed, and the cells were washed (2×) with 100 μl ice-cold assay buffer. Lysis buffer (50 μl) was added to the cells followed by a 5 minute incubation with gentle shaking at room temperature. The lysate was transferred to a 96 well isoplate. Optiphase supermix (100 μl) was added to each well and was thoroughly mixed. Radioactivity was counted with Microbeta Counter and reported as counts per minute (CPM). Fluoxetine was used as a control to measure non-specific uptake and for data normalization. Percent inhibition of [3H]-Serotonin uptake is based on the calculation: 100×(1−(CPMtest sample−CPMnon-specific uptake)/(CPMMAX−CPMMIN)).

The target in assay [3] is Norepinephrine transporter (NET) (Homo sapiens (Human), UniProt P23975). Description: Norepinephrine transporter (NET) uptake inhibition, [3H]-Norepinephrine uptake in HEK cells. Conditions: HEK cells expressing recombinant NET; [3H]-Norepinephrine 20 nM. The protocol: as §1, with “Norepinephrine” for “Dopamine”, “(NET)” for “(DAT)”, “NET” for “DAT”, “[3H]-Norepinephrine” for “[3H]-Dihydroxyphenylethylamine (dopamine)”, “Desipramine” for “Nomifensine”, “[3H]-Norepinephrine” for “[3H]-Dopamine”

The term IC50 denotes the concentration needed to halve the response being measured. As a reminder, the inhibition is the change of the read-out against control, counted positive when it falls. Turning to `CNC(C)Cc1ccc2c(c1)OCO2` (stereo not drawn) [MDMA, 3,4-Methylenedioxymethamphetamine, reference compound], the IC50 in assay [1] is 5.25 µM; in assay [2], 3.35 µM; in assay [3], 1.42 µM. The inhibition at 10 µM in assay [2] is 53.3%. In assay [2], the inhibition at 100 µM was 98%.

With `CC(N)Cc1ccc2occ(F)c2c1` (stereo not drawn) [Compound 1, 1-(3-fluorobenzofuran-5-yl)propan-2-amine], the IC50 in assay [1] worked out at 15.6 µM. In assay [2], the inhibition at 10 µM is 72.7%, the inhibition at 100 µM came out at 97.9% and the IC50 was determined as 6.75 µM. The half-maximal inhibitory concentration (IC50) in assay [3] came out at 4.73 µM.

Consider `CNC(C)Cc1ccc2occ(F)c2c1` (stereo not drawn) [Compound 2, 1-(3-fluorobenzofuran-5-yl)-N-methylpropan-2-amine], for which the half-inhibitory concentration (IC50) in assay [1] stood at 9.59 µM. Also, in assay [2], the inhibition at 10 µM was found to be 64.7%, the inhibition at 100 µM turned out to be 99% and the IC50 was determined as 5.72 µM. In assay [3], the IC50 was 5.02 µM.

(Values after US20240425470A1, “S[…] AMINE MODULATORS OF MONOAMINERGIC TRANSPORTERS” (ATAI Life Sciences AG, priority 2023, published 2024).)
